# Experimental data published in publication PMC11999743 (Journal of Analytical Methods in Chemistry, 2025).
# Structures can show the parent of a compound that is named as a salt.
# Experiment: Pharmacokinetic study in naive mice after intraperitoneal injection
# Conditions: 3 mg/kg; for V_F: uncorrected for bioavailability
# Method: Nine-week-old male Swiss mice (Janvier Labs, Le Genest-Saint-Isle, France), weighing 35–45 g at the time of experimentation, were used. […] Food and tap water were given ad libitum.
# Their hind legs were depilated after a 1 min application of a commercial depilatory cream and rinsed with water. Subsequently, the mice were returned to their cages to allow for recovery and complete anesthesia washout. On the day of the experiment, an initial blood sample (20–30 μL) was collected by perforation of the saphenous vein from the mice.
# For each treatment group, mice were subdivided into two cohorts, with blood samples collected at distinct time intervals after injection, totaling 14 time points for pharmacokinetic modeling. Compliance with regulatory directives prevented the collection of more than eight blood samples from individual animals. […] Blood samples were acquired using heparinized capillaries containing 2 μL of sodium heparin (Panpharma, France). After collection, the samples were transferred to Eppendorf tubes and centrifuged at 3000 g and 4°C for 10 min. The recovered plasma was then stored at −80°C until analysis. At the end of the experiments, the mice were euthanized by i.p. lethal injection (150 mg/kg) of sodium pentobarbital (Doléthal, Vétoquinol SA, France).
# Pharmacokinetic analysis was carried out from the average concentration values at each time point using the Phoenix WinNonLin Version 8.4 software (Certara, Princeton NJ, USA). Pharmacokinetic parameters were determined from the plasma concentration-time data using a compartmental approach and include the total area under the plasma concentration-time curve (AUC0-∞), elimination half-life (t1/2elim), total clearance (CL/F), and volume of distribution (V). CL and V were uncorrected for the bioavailability (F).
# [1] = male, Swiss, mouse, in vivo, ip
AUC [1] [ng·h/mL],CL/F [1] [mL/min/kg],Cmax [1] [ng/mL],"Tmax (male, Swiss, mouse, in vivo, ip, T max, naive mice, plasma) [min]","half-life (male, Swiss, mouse, in vivo, ip, t 1/2elim, naive mice, plasma) [min]","T max (naive mice, i.p., plasma) [min]","t 1/2elim (naive mice, i.p., plasma) [min]","Time after which plasma concentrations were below the LLOQ (naive mice, i.p., LLOQ 0.5 ng/mL tiotropium, 1 ng/mL atropine) [min]",Compound,"V_F (naive mice, i.p.) [L/kg]"
–,–,–,–,–,–,–,–,"CN1[C@@H]2CC[C@H]1C[C@@H](OC(=O)C(CO)c1ccccc1)C2 (stereo partly shown) [Atropine, Atropine sulfate monohydrate]",5.204 ± 0.43
199,201 ± 5,705 ± 22,4.9,~7.5,4.89 ± 0.24,7.43 ± 0.12,60,"C[N+]1(C)[C@@H]2C[C@@H](OC(=O)C(O)(c3cccs3)c3cccs3)C[C@H]1[C@@H]1O[C@@H]12 [Tiotropium, Tiotropium bromide monohydrate]",2.158 ± 0.075
